In US12077503B2, “Substituted cyclic amides and their use as herbicides” (FMC CORPORATION, priority 2015, dated 2024):

How the values were obtained:
Format in all cases: in vivo
[1] = tested on: Kochia (Kochia scoparia); experiment: Test A preemergence; details: Bassia scoparia, pre-emergence, 240 h, 0 to 100 scale where 0 is no effect and 100 is complete control, read-out: Kochia plant response rating
Summary of the method: (§1)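 Seeds sprayed preemergence with a directed soil spray, or plants at 2 to 10 cm height and one- to two-leaf stage sprayed postemergence, with test chemicals in a non-phytotoxic solvent mixture containing surfactant, in loam soil–sand blend. Injury rated visually against untreated controls after about 10 d in greenhouse, 0 (no effect) to 100 (complete control).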

[2] = tested on: barnyardgrass (Echinochloa crus-galli); experiment: Test A preemergence; details: Echinochloa crus-galli, pre-emergence, 240 h, 0 to 100 scale where 0 is no effect and 100 is complete control, read-out: Barnyardgrass plant response rating
Summary of the method: as §1

[3] = tested on: giant foxtail (Setaria faberii); experiment: Test A preemergence; details: Setaria faberi, pre-emergence, 240 h, 0 to 100 scale where 0 is no effect and 100 is complete control, read-out: Foxtail, Giant plant response rating
Summary of the method: as §1

[4] = tested on: pigweed (Amaranthus retroflexus); experiment: Test A preemergence; details: Amaranthus retroflexus, pre-emergence, 240 h, 0 to 100 scale where 0 is no effect and 100 is complete control, read-out: Pigweed plant response rating
[5] = tested on: ragweed (common ragweed, Ambrosia elatior); experiment: Test A preemergence; details: Ambrosia artemisiifolia, pre-emergence, 240 h, 0 to 100 scale where 0 is no effect and 100 is complete control, read-out: Ragweed plant response rating
Summary of the method: as §1

[6] = tested on: ryegrass, Italian (Italian ryegrass, Lolium multiflorum); experiment: Test A preemergence; details: Lolium multiflorum, pre-emergence, 240 h, 0 to 100 scale where 0 is no effect and 100 is complete control, read-out: Ryegrass, Italian plant response rating
Summary of the method: as §1

[7] = tested on: Galium (catchweed bedstraw, Galium aparine); experiment: Test A postemergence; details: Galium, post-emergence, 240 h
Summary of the method: as §1

[8] = tested on: Kochia (Kochia scoparia); experiment: Test A postemergence; details: Bassia scoparia, post-emergence, 240 h
Summary of the method: as §1

[9] = tested on: barnyardgrass (Echinochloa crus-galli); experiment: Test A postemergence; details: Echinochloa crus-galli, post-emergence, 240 h
Summary of the method: as §1

[10] = tested on: blackgrass (Alopecurus myosuroides); experiment: Test A postemergence; details: Alopecurus myosuroides, post-emergence, 240 h
Summary of the method: as §1

[11] = tested on: corn (Zea mays); experiment: Test A postemergence; details: Zea mays, post-emergence, 240 h
Summary of the method: as §1

[12] = tested on: giant foxtail (Setaria faberii); experiment: Test A postemergence; details: Setaria faberi, post-emergence, 240 h
Summary of the method: as §1

[13] = tested on: pigweed (Amaranthus retroflexus); experiment: Test A postemergence; details: Amaranthus retroflexus, post-emergence, 240 h
Summary of the method: as §1

[14] = tested on: ragweed (common ragweed, Ambrosia elatior); experiment: Test A postemergence; details: Ambrosia artemisiifolia, post-emergence, 240 h
Summary of the method: as §1

[15] = tested on: ryegrass, Italian (Italian ryegrass, Lolium multiflorum); experiment: Test A postemergence; details: Lolium multiflorum, post-emergence, 240 h
Summary of the method: as §1

[16] = tested on: wheat (Triticum aestivum); experiment: Test A postemergence; details: Triticum aestivum, post-emergence, 240 h
Summary of the method: as §1

[17] = tested on: barnyardgrass (Echinochloa crus-galli); experiment: Test B flooded paddy test; details: Echinochloa crus-galli, 250 g ai/ha, Flood; 0 to 100 scale where 0 is no effect and 100 is complete control; read-out: Barnyardgrass plant response rating
Summary of the method: (§2)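 Evaluation by eye, against controls, occurred 13–15 d post-treatment in a greenhouse, using a 0 (no effect) to 100 (complete control) scale. Application was into the paddy water, 3 cm deep over the soil, on 2-leaf plants.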

[18] = tested on: ducksalad (Heteranthera limosa); experiment: Test B flooded paddy test; details: Heteranthera limosa, 250 g ai/ha, Flood; 0 to 100 scale where 0 is no effect and 100 is complete control; read-out: Ducksalad plant response rating
Summary of the method: as §2

[19] = tested on: rice (Oryra sativa); experiment: Test B flooded paddy test; details: Oryza sativa, 250 g ai/ha, Flood; 0 to 100 scale where 0 is no effect and 100 is complete control; read-out: Rice plant response rating
Summary of the method: as §2

[20] = tested on: sedge, umbrella (small-flower umbrella sedge, Cyperus difformis); experiment: Test B flooded paddy test; details: Cyperus difformis, 250 g ai/ha, Flood; 0 to 100 scale where 0 is no effect and 100 is complete control; read-out: Sedge, Umbrella plant response rating
Summary of the method: as §2

[21] = 125 g ai/ha, preemergence, approx. 10 d

SMILES: CN1C[C@H](c2ccc(C(F)(F)F)cn2)[C@@H](C(=O)Nc2ccc(F)c(F)c2F)C1=O [Compound 1106]
- pest or weed control at 31 g/ha ([1]; 31 g ai/ha, Preemergence): 0%
- pest or weed control at 125 g/ha [1, 21]: 60%
- pest or weed control at 31 g/ha ([2]; 31 g ai/ha, Preemergence): 50%
- pest or weed control at 125 g/ha [2, 21]: 90%
- pest or weed control at 31 g/ha ([3]; 31 g ai/ha, Preemergence): 60%
- pest or weed control at 125 g/ha [3, 21]: 90%
- pest or weed control at 31 g/ha ([4]; 31 g ai/ha, Preemergence): 0%
- pest or weed control at 125 g/ha [4, 21]: 20%
- pest or weed control at 31 g/ha ([5]; 31 g ai/ha, Preemergence): 0%
- pest or weed control at 125 g/ha [5, 21]: 30%
- pest or weed control at 31 g/ha ([6]; 31 g ai/ha, Preemergence): 0%
- pest or weed control at 125 g/ha [6, 21]: 0%
- pest or weed control at 125 g/ha ([7]; 125 g ai/ha, postemergence, visual injury on 0 to 100 scale (0 no effect, 100 complete control), approx. 10 d, read-out: Galium plant response rating): 60%
- pest or weed control at 31 g/ha ([7]; Postemergence, 31 g ai/ha, visual injury after approx. 10 d, 0 to 100 scale, 0 no effect, 100 complete control, read-out: Plant response rating, Galium): 40%
- pest or weed control at 125 g/ha ([8]; 125 g ai/ha, postemergence, visual injury on 0 to 100 scale (0 no effect, 100 complete control), approx. 10 d, read-out: Kochia plant response rating): 60%
- pest or weed control at 31 g/ha ([8]; Postemergence, 31 g ai/ha, visual injury after approx. 10 d, 0 to 100 scale, 0 no effect, 100 complete control, read-out: Plant response rating, Kochia): 0%
- pest or weed control at 125 g/ha ([9]; 125 g ai/ha, postemergence, visual injury on 0 to 100 scale (0 no effect, 100 complete control), approx. 10 d, read-out: Barnyardgrass plant response rating): 80%
- pest or weed control at 31 g/ha ([9]; Postemergence, 31 g ai/ha, visual injury after approx. 10 d, 0 to 100 scale, 0 no effect, 100 complete control, read-out: Plant response rating, Barnyardgrass): 30%
- pest or weed control at 125 g/ha ([10]; 125 g ai/ha, postemergence, visual injury on 0 to 100 scale (0 no effect, 100 complete control), approx. 10 d, read-out: Blackgrass plant response rating): 0%
- pest or weed control at 31 g/ha ([10]; Postemergence, 31 g ai/ha, visual injury after approx. 10 d, 0 to 100 scale, 0 no effect, 100 complete control, read-out: Plant response rating, Blackgrass): 0%
- plant injury at 125 g/ha ([11]; 125 g ai/ha, postemergence, visual injury on 0 to 100 scale (0 no effect, 100 complete control), approx. 10 d, read-out: Corn plant response rating): 0%
- Corn plant response rating (crop injury, 0 = no effect, 100 = complete kill) at 31 g/ha ([11]; Postemergence, 31 g ai/ha, visual injury after approx. 10 d, 0 to 100 scale, 0 no effect, 100 complete control): 0%
- pest or weed control at 125 g/ha ([12]; 125 g ai/ha, postemergence, visual injury on 0 to 100 scale (0 no effect, 100 complete control), approx. 10 d, read-out: Foxtail, Giant plant response rating): 60%
- pest or weed control at 31 g/ha ([12]; Postemergence, 31 g ai/ha, visual injury after approx. 10 d, 0 to 100 scale, 0 no effect, 100 complete control, read-out: Plant response rating, Foxtail, Giant): 0%
- pest or weed control at 125 g/ha ([13]; 125 g ai/ha, postemergence, visual injury on 0 to 100 scale (0 no effect, 100 complete control), approx. 10 d, read-out: Pigweed plant response rating): 20%
- pest or weed control at 31 g/ha ([13]; Postemergence, 31 g ai/ha, visual injury after approx. 10 d, 0 to 100 scale, 0 no effect, 100 complete control, read-out: Plant response rating, Pigweed): 10%
- pest or weed control at 125 g/ha ([14]; 125 g ai/ha, postemergence, visual injury on 0 to 100 scale (0 no effect, 100 complete control), approx. 10 d, read-out: Ragweed plant response rating): 0%
- pest or weed control at 31 g/ha ([14]; Postemergence, 31 g ai/ha, visual injury after approx. 10 d, 0 to 100 scale, 0 no effect, 100 complete control, read-out: Plant response rating, Ragweed): 0%
- pest or weed control at 125 g/ha ([15]; 125 g ai/ha, postemergence, visual injury on 0 to 100 scale (0 no effect, 100 complete control), approx. 10 d, read-out: Ryegrass, Italian plant response rating): 0%
- pest or weed control at 31 g/ha ([15]; Postemergence, 31 g ai/ha, visual injury after approx. 10 d, 0 to 100 scale, 0 no effect, 100 complete control, read-out: Plant response rating, Ryegrass, Italian): 0%
- plant injury at 125 g/ha ([16]; 125 g ai/ha, postemergence, visual injury on 0 to 100 scale (0 no effect, 100 complete control), approx. 10 d, read-out: Wheat plant response rating): 0%
- plant injury at 31 g/ha ([16]; Postemergence, 31 g ai/ha, visual injury after approx. 10 d, 0 to 100 scale, 0 no effect, 100 complete control, read-out: Plant response rating, Wheat): 0%
- pest or weed control at 250 g/ha [17]: 70%
- pest or weed control at 250 g/ha [18]: 100%
- pest or weed control at 250 g/ha [19]: 40%
- pest or weed control at 250 g/ha [20]: 0%
